Experimental data taken from ChEMBL document CHEMBL1201861, “Genomics of Drug Sensitity in Cancer screening data, Wellcome Trust Sanger Institute”.

What was measured:
Test in all cases: cells
[1] = tested on: COLO-824; assay type: functional, cell-based, Homo sapiens; details: Homo sapiens, COLO-824
Description: SANGER: Inhibition of human COLO-824 cell growth in a cell viability assay.

[2] = tested on: COR-L88; assay type: functional, cell-based, Homo sapiens; details: Homo sapiens, COR-L88;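 note: growth inhibition of COR-L88 cells, read out with a cell viability assay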
Description: SANGER: Inhibition of human COR-L88 cell growth in a cell viability assay.

[3] = tested on: CTV-1; assay type: functional, cell-based, Homo sapiens; details: Homo sapiens, CTV-1;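 note: growth inhibition of the cell line, read out with a cell viability assay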
Description: SANGER: Inhibition of human CTV-1 cell growth in a cell viability assay.

[4] = tested on: Calu-6; assay type: functional, cell-based, Homo sapiens; details: Homo sapiens, Calu-6;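 note: growth of human Calu-6 cells, read out by a cell viability assay, IC50 marking inhibition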
Description: SANGER: Inhibition of human Calu-6 cell growth in a cell viability assay.

[5] = tested on: D-247MG; assay type: functional, cell-based; details: Homo sapiens
Description: SANGER: Inhibition of human D-247MG cell growth in a cell viability assay.

[6] = tested on: D283 Med; assay type: functional, cell-based, Homo sapiens; details: Homo sapiens, D283 Med
Description: SANGER: Inhibition of human D-283MED cell growth in a cell viability assay.

[7] = tested on: D-502MG; assay type: functional, cell-based, Homo sapiens; details: Homo sapiens, D-502MG
Description: SANGER: Inhibition of human D-502MG cell growth in a cell viability assay.

[8] = tested on: EKVX; assay type: functional, cell-based, Homo sapiens; details: Homo sapiens, EKVX;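 note: growth inhibition of human EKVX cells, read out with a cell viability assay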
Description: SANGER: Inhibition of human EKVX cell growth in a cell viability assay.

[9] = tested on: ETK-1; assay type: functional, cell-based, Homo sapiens; details: Homo sapiens, ETK-1;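 note: growth inhibition of human ETK-1 cells, read out with a cell viability assay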
Description: SANGER: Inhibition of human ETK-1 cell growth in a cell viability assay.

[10] = tested on: EW-11; assay type: functional, cell-based, Homo sapiens; details: Homo sapiens, EW-11;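 note: growth inhibition of human EW-11 cells, measured with a cell viability assay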
Description: SANGER: Inhibition of human EW-11 cell growth in a cell viability assay.

[11] = tested on: EW-18; assay type: functional, cell-based, Homo sapiens; details: Homo sapiens, EW-18; read-out: IC50;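 note: growth inhibition of EW-18 cells, read out by a cell viability assay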
Description: SANGER: Inhibition of human EW-18 cell growth in a cell viability assay.

[12] = tested on: GR-ST; assay type: functional, cell-based, Homo sapiens; details: Homo sapiens, GR-ST
Description: SANGER: Inhibition of human GR-ST cell growth in a cell viability assay.

[13] = tested on: HCE-T; assay type: functional, cell-based, Homo sapiens; details: Homo sapiens, HCE-T;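 note: cell viability assay read-out, reporting inhibition of HCE-T cell growth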
Description: SANGER: Inhibition of human HCE-T cell growth in a cell viability assay.

[14] = tested on: IA-LM; assay type: functional, cell-based; details: Homo sapiens;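 note: cell viability assay measuring growth inhibition of human IA-LM cells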
Description: SANGER: Inhibition of human IA-LM cell growth in a cell viability assay.

[15] = tested on: KARPAS-45; assay type: functional, cell-based, Homo sapiens; details: Homo sapiens, KARPAS-45;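 note: inhibition of cell line growth, read out through a viability assay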
Description: SANGER: Inhibition of human KARPAS-45 cell growth in a cell viability assay.

[16] = tested on: KM12; assay type: functional, cell-based, Homo sapiens; details: Homo sapiens, KM12;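 note: KM12 cell growth inhibition, read out with a cell viability assay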
Description: SANGER: Inhibition of human KM12 cell growth in a cell viability assay.

[17] = tested on: KNS-81-FD; assay type: functional, cell-based, Homo sapiens; details: Homo sapiens, KNS-81-FD;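 note: growth inhibition of KNS-81-FD cells, read out with a cell viability assay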
Description: SANGER: Inhibition of human KNS-81-FD cell growth in a cell viability assay.

[18] = tested on: KY821; assay type: functional, cell-based, Homo sapiens; details: Homo sapiens, KY821;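 note: growth inhibition of human KY821 cells, read out by a cell viability assay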
Description: SANGER: Inhibition of human KY821 cell growth in a cell viability assay.

[19] = tested on: LB1047-RCC; assay type: functional, cell-based, Homo sapiens; details: Homo sapiens, LB1047-RCC;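 note: inhibition of cell growth, determined with a cell viability assay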
Description: SANGER: Inhibition of human LB1047-RCC cell growth in a cell viability assay.

[20] = tested on: LB831-BLC; assay type: functional, cell-based, Homo sapiens; details: Homo sapiens, LB831-BLC;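 note: growth inhibition of LB831-BLC cells, read out with a cell viability assay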
Description: SANGER: Inhibition of human LB831-BLC cell growth in a cell viability assay.

[21] = tested on: LS-1034; assay type: functional, cell-based, Homo sapiens; details: Homo sapiens, LS-1034
Description: SANGER: Inhibition of human LS-1034 cell growth in a cell viability assay.

[22] = tested on: LS-411N; assay type: functional, cell-based, Homo sapiens; details: Homo sapiens, LS-411N
[23] = tested on: MFM-223; assay type: functional, cell-based, Homo sapiens; details: Homo sapiens, MFM-223
Description: SANGER: Inhibition of human MFM-223 cell growth in a cell viability assay.

[24] = tested on: MHH-PREB-1; assay type: functional, cell-based, Homo sapiens; details: Homo sapiens, MHH-PREB-1;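 note: cell viability assay measuring inhibition of proliferation of human MHH-PREB-1 cells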
Description: SANGER: Inhibition of human MHH-PREB-1 cell growth in a cell viability assay.

[25] = tested on: MLMA; assay type: functional, cell-based, Homo sapiens; details: Homo sapiens, MLMA;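 note: growth inhibition of MLMA cells (human), determined through a cell viability readout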
Description: SANGER: Inhibition of human MLMA cell growth in a cell viability assay.

[26] = tested on: MPP-89; assay type: functional, cell-based, Homo sapiens; details: Homo sapiens, MPP-89;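 note: growth inhibition of human MPP-89 cells, read out with a cell viability assay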
Description: SANGER: Inhibition of human MPP-89 cell growth in a cell viability assay.

[27] = tested on: MS-1; assay type: functional, cell-based, Homo sapiens; details: Homo sapiens, MS-1;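 note: growth inhibition of MS-1 cells, read out by cell viability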
Description: SANGER: Inhibition of human MS-1 cell growth in a cell viability assay.

[28] = tested on: NCI-H1304; assay type: functional, cell-based, Homo sapiens; details: Homo sapiens, NCI-H1304;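 note: growth inhibition of the cancer cell line, measured in a cell viability assay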
Description: SANGER: Inhibition of human NCI-H1304 cell growth in a cell viability assay.

[29] = tested on: NCI-H1770; assay type: functional, cell-based, Homo sapiens; details: Homo sapiens, NCI-H1770;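 note: growth inhibition of NCI-H1770 cells determined with a viability readout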
Description: SANGER: Inhibition of human NCI-H1770 cell growth in a cell viability assay.

[30] = tested on: NCI-H446; assay type: functional, cell-based, Homo sapiens; details: Homo sapiens, NCI-H446;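 note: growth inhibition of NCI-H446 cells determined by a cell viability assay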
Description: SANGER: Inhibition of human NCI-H446 cell growth in a cell viability assay.

[31] = tested on: NCI-H526; assay type: functional, cell-based, Homo sapiens; details: Homo sapiens, NCI-H526;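 note: growth inhibition of the human NCI-H526 cell line, measured by a cell viability assay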
Description: SANGER: Inhibition of human NCI-H526 cell growth in a cell viability assay.

[32] = tested on: P30-OHK; assay type: functional, cell-based, Homo sapiens; details: Homo sapiens, P30-OHK;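 note: growth inhibition of the P30-OHK cell line, read out with a cell viability assay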
Description: SANGER: Inhibition of human P30-OHK cell growth in a cell viability assay.

[33] = tested on: RERF-LC-MS; assay type: functional, cell-based; details: Homo sapiens;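 note: growth inhibition of human RERF-LC-MS cells, read out by a cell viability assay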
Description: SANGER: Inhibition of human RERF-LC-MS cell growth in a cell viability assay.

[34] = tested on: RXF 393; assay type: functional, cell-based, Homo sapiens; details: Homo sapiens, RXF 393;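 note: growth inhibition of human RXF 393 cells, read out with a cell viability assay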
Description: SANGER: Inhibition of human RXF393 cell growth in a cell viability assay.

[35] = tested on: SF-268; assay type: functional, cell-based, Homo sapiens; details: Homo sapiens, SF-268;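 note: growth inhibition of SF-268 cells determined with a cell viability assay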
Description: SANGER: Inhibition of human SF268 cell growth in a cell viability assay.

[36] = tested on: SJRH30; assay type: functional, cell-based; details: Homo sapiens;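 note: growth inhibition of human SJRH30 cells, read out with a cell viability assay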
Description: SANGER: Inhibition of human SJRH30 cell growth in a cell viability assay.

[37] = tested on: SK-N-DZ; assay type: functional, cell-based, Homo sapiens; details: Homo sapiens, SK-N-DZ; read-out: IC50;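 note: growth inhibition of the cancer cell line, read out through a viability assay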
Description: SANGER: Inhibition of human SK-N-DZ cell growth in a cell viability assay.

[38] = tested on: SNB-75; assay type: functional, cell-based, Homo sapiens; details: Homo sapiens, SNB-75;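 note: cell viability assay measuring growth inhibition of human SNB-75 cells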
Description: SANGER: Inhibition of human SNB75 cell growth in a cell viability assay.

[39] = tested on: A101D; assay type: functional, cell-based, Homo sapiens; details: Homo sapiens, A101D;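 note: growth inhibition of the cell line, measured with a viability assay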
Description: SANGER: Inhibition of human A101D cell growth in a cell viability assay.

[40] = tested on: A4-Fuk; assay type: functional, cell-based, Homo sapiens; details: Homo sapiens, A4-Fuk;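 note: growth inhibition of A4-Fuk cells, read out by a cell viability assay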
Description: SANGER: Inhibition of human A4-Fuk cell growth in a cell viability assay.

[41] = tested on: ACN; assay type: functional, cell-based, Homo sapiens; details: Homo sapiens, ACN;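 note: growth inhibition of the human ACN cell line, read out via cell viability testing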
Description: SANGER: Inhibition of human ACN cell growth in a cell viability assay.

[42] = tested on: AM-38; assay type: functional, cell-based, Homo sapiens; details: Homo sapiens, AM-38;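 note: growth inhibition of AM-38 cells of human origin, read out by a cell viability assay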
Description: SANGER: Inhibition of human AM-38 cell growth in a cell viability assay.

[43] = tested on: BB49-HNC; assay type: functional, cell-based, Homo sapiens; details: Homo sapiens, BB49-HNC;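 note: cell viability assay read-out, reported as inhibition of BB49-HNC cell growth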
Description: SANGER: Inhibition of human BB49-HNC cell growth in a cell viability assay.

[44] = tested on: Becker; assay type: functional, cell-based, Homo sapiens; details: Homo sapiens, Becker;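 note: growth inhibition of Becker cells, read out with a cell viability assay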
Description: SANGER: Inhibition of human Becker cell growth in a cell viability assay.

[45] = tested on: TE-5; assay type: functional, cell-based, Homo sapiens; details: Homo sapiens, TE-5;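 note: inhibition of cell growth, read out by a cell viability assay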
Description: SANGER: Inhibition of human TE-5 cell growth in a cell viability assay.

[46] = tested on: TE-6; assay type: functional, cell-based, Homo sapiens; details: Homo sapiens, TE-6;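 note: growth inhibition of TE-6 cells, read out with a cell viability assay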
Description: SANGER: Inhibition of human TE-6 cell growth in a cell viability assay.

[47] = tested on: TGBC1TKB; assay type: functional, cell-based, Homo sapiens; details: Homo sapiens, TGBC1TKB;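 note: growth inhibition of TGBC1TKB cells, read out by a cell viability assay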
Description: SANGER: Inhibition of human TGBC1TKB cell growth in a cell viability assay.

[48] = tested on: UACC-62; assay type: functional, cell-based; details: Homo sapiens;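 note: growth inhibition of human UACC-62 cells, read out by a cell viability assay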
Description: SANGER: Inhibition of human UACC-62 cell growth in a cell viability assay.

[49] = tested on: VA-ES-BJ; assay type: functional, cell-based, Homo sapiens; details: Homo sapiens, VA-ES-BJ;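 note: growth inhibition of the VA-ES-BJ cell line, read out by a cell viability assay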
Description: SANGER: Inhibition of human VA-ES-BJ cell growth in a cell viability assay.

[50] = tested on: COLO-668; assay type: functional, cell-based, Homo sapiens; details: Homo sapiens, COLO-668
Description: SANGER: Inhibition of human COLO-668 cell growth in a cell viability assay.

CC1(C)CCC(c2ccc(Cl)cc2)=C(CN2CCN(c3ccc(C(=O)NS(=O)(=O)c4ccc(N[C@H](CCN5CCOCC5)CSc5ccccc5)c(S(=O)(=O)C(F)(F)F)c4)cc3)CC2)C1 [NAVITOCLAX]
IC50 [1]: 1020 nM
IC50 [2]: 365 nM
IC50 [3]: > 2000 nM
IC50 [4]: > 2000 nM
IC50 [5]: 1510 nM
IC50 [6]: 177 nM
IC50 [7]: > 2000 nM
IC50 [8]: > 2000 nM
IC50 [9]: > 2000 nM
IC50 [10]: 1960 nM
IC50 [11]: 68.4 nM
IC50 [12]: > 2000 nM
IC50 [13]: > 2000 nM
IC50 [14]: > 2000 nM
IC50 [15]: 78.1 nM
IC50 [16]: > 2000 nM
IC50 [17]: 440 nM
IC50 [18]: 29.7 nM
IC50 [19]: > 2000 nM
IC50 [20]: > 2000 nM
IC50 [21]: > 2000 nM
IC50 [22]: > 2000 nM
IC50 [23]: > 2000 nM
IC50 [24]: > 2000 nM
IC50 [25]: 1970 nM
IC50 [26]: > 2000 nM
IC50 [27]: 469 nM
IC50 [28]: 462 nM
IC50 [29]: > 2000 nM
IC50 [30]: > 2000 nM
IC50 [31]: > 2000 nM
IC50 [32]: 1050 nM
IC50 [33]: > 2000 nM
IC50 [34]: > 2000 nM
IC50 [35]: > 2000 nM
IC50 [36]: > 2000 nM
IC50 [37]: > 2000 nM
IC50 [38]: > 2000 nM
IC50 [39]: > 2000 nM
IC50 [40]: > 2000 nM
IC50 [41]: > 2000 nM
IC50 [42]: > 2000 nM
IC50 [43]: > 2000 nM
IC50 [44]: > 2000 nM
IC50 [45]: > 2000 nM
IC50 [46]: > 2000 nM
IC50 [47]: 1140 nM
IC50 [48]: > 2000 nM
IC50 [49]: > 2000 nM
IC50 [50]: > 2000 nM

NC(=O)c1ccc(N(C(N)=O)c2c(F)cccc2F)nc1-c1ccc(F)cc1F [VX-702]
IC50 [1]: > 2000 nM
IC50 [2]: 335 nM
IC50 [3]: 184 nM
IC50 [4]: > 2000 nM
IC50 [5]: > 2000 nM
IC50 [6]: > 2000 nM
IC50 [7]: > 2000 nM
IC50 [8]: > 2000 nM
IC50 [9]: > 2000 nM
IC50 [10]: > 2000 nM
IC50 [11]: 747 nM
IC50 [12]: > 2000 nM
IC50 [13]: > 2000 nM
IC50 [14]: > 2000 nM
IC50 [15]: 148 nM
IC50 [16]: > 2000 nM
IC50 [17]: > 2000 nM
IC50 [18]: 396 nM
IC50 [19]: > 2000 nM
IC50 [20]: > 2000 nM
IC50 [21]: > 2000 nM
IC50 [22]: > 2000 nM
IC50 [23]: > 2000 nM
IC50 [24]: > 2000 nM
IC50 [25]: > 2000 nM
IC50 [26]: > 2000 nM
IC50 [27]: > 2000 nM
IC50 [28]: > 2000 nM
IC50 [29]: > 2000 nM
IC50 [30]: > 2000 nM
IC50 [31]: > 2000 nM
IC50 [32]: > 2000 nM
IC50 [33]: > 2000 nM
IC50 [34]: > 2000 nM
IC50 [35]: > 2000 nM
IC50 [36]: > 2000 nM
IC50 [37]: > 2000 nM
IC50 [38]: > 2000 nM
IC50 [39]: > 2000 nM
IC50 [40]: > 2000 nM
IC50 [41]: > 2000 nM
IC50 [42]: > 2000 nM
IC50 [43]: > 2000 nM
IC50 [44]: > 2000 nM
IC50 [45]: > 2000 nM
IC50 [46]: > 2000 nM
IC50 [47]: > 2000 nM
IC50 [48]: > 2000 nM
IC50 [49]: > 2000 nM
IC50 [50]: > 2000 nM
